These results are taken from patent US10890577B2, “Treatment methods having reduced drug-related toxicity and methods of identifying the likelihood of patient harm from prescribed medications” (TABULA RASA HEALTHCARE, INC., priority 2016, dated 2021).

The target in one data set is L-type Ca^2+ currents (Homo sapiens, UniProt Q13936). To be noted: cited from earlier work.
A further data set concerns the target IKs (Homo sapiens, UniProt P51787). Particulars: cited from earlier work.
The next data set has as its target IKr (Homo sapiens, UniProt Q12809). Particulars: cited from earlier work.
The target of another data set is CYP2D6 (Homo sapiens, UniProt P10635). To be noted: in vivo; cited from earlier work.
For data set [1] the following is noted: CYP2D6 inhibited; 100/(100-MP); over the course of multiple doses.
For data set [2] the following is noted: in vivo; cited from earlier work.
For another data set, the system named is QTc interval. To be noted: positive control; cited from earlier work.
The conditions of data set [3]: value inserted in K1 equation as (100-97)/100; cited from earlier work.
The conditions of data set [4]: value inserted in K1 equation; read-out: Cmax of the drug at a test dose; cited from earlier work.

Chain of IKr (Q12809 whole entry): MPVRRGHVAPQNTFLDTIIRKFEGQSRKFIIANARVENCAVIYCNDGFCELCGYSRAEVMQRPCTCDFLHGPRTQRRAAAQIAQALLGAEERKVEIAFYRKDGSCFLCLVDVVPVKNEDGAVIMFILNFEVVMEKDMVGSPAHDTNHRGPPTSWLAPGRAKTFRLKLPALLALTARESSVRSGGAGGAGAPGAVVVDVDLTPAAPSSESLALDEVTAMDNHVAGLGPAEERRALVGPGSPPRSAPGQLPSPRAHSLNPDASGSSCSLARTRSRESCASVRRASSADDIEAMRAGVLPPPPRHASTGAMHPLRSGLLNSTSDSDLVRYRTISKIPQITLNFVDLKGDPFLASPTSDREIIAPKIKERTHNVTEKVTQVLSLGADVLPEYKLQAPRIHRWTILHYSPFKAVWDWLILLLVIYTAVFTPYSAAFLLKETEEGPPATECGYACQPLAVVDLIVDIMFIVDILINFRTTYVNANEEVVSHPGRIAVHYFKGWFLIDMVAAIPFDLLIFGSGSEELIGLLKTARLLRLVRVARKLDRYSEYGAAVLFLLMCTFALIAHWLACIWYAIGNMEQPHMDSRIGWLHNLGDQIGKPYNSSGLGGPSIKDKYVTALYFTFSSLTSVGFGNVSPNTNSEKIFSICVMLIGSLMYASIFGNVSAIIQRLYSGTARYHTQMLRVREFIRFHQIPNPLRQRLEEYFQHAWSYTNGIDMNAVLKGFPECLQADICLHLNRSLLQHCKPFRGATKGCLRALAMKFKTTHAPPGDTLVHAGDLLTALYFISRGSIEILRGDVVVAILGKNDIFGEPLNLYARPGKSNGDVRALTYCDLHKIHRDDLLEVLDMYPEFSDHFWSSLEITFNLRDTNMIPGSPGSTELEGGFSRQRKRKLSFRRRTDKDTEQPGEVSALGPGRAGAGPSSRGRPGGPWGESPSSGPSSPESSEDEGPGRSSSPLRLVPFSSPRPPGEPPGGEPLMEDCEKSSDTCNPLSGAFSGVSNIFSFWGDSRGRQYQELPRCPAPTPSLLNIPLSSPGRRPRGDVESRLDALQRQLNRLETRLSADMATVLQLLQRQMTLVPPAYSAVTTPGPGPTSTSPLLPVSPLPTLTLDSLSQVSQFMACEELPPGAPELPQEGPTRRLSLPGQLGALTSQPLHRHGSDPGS
Chain of L-type Ca^2+ currents (Q13936 whole entry): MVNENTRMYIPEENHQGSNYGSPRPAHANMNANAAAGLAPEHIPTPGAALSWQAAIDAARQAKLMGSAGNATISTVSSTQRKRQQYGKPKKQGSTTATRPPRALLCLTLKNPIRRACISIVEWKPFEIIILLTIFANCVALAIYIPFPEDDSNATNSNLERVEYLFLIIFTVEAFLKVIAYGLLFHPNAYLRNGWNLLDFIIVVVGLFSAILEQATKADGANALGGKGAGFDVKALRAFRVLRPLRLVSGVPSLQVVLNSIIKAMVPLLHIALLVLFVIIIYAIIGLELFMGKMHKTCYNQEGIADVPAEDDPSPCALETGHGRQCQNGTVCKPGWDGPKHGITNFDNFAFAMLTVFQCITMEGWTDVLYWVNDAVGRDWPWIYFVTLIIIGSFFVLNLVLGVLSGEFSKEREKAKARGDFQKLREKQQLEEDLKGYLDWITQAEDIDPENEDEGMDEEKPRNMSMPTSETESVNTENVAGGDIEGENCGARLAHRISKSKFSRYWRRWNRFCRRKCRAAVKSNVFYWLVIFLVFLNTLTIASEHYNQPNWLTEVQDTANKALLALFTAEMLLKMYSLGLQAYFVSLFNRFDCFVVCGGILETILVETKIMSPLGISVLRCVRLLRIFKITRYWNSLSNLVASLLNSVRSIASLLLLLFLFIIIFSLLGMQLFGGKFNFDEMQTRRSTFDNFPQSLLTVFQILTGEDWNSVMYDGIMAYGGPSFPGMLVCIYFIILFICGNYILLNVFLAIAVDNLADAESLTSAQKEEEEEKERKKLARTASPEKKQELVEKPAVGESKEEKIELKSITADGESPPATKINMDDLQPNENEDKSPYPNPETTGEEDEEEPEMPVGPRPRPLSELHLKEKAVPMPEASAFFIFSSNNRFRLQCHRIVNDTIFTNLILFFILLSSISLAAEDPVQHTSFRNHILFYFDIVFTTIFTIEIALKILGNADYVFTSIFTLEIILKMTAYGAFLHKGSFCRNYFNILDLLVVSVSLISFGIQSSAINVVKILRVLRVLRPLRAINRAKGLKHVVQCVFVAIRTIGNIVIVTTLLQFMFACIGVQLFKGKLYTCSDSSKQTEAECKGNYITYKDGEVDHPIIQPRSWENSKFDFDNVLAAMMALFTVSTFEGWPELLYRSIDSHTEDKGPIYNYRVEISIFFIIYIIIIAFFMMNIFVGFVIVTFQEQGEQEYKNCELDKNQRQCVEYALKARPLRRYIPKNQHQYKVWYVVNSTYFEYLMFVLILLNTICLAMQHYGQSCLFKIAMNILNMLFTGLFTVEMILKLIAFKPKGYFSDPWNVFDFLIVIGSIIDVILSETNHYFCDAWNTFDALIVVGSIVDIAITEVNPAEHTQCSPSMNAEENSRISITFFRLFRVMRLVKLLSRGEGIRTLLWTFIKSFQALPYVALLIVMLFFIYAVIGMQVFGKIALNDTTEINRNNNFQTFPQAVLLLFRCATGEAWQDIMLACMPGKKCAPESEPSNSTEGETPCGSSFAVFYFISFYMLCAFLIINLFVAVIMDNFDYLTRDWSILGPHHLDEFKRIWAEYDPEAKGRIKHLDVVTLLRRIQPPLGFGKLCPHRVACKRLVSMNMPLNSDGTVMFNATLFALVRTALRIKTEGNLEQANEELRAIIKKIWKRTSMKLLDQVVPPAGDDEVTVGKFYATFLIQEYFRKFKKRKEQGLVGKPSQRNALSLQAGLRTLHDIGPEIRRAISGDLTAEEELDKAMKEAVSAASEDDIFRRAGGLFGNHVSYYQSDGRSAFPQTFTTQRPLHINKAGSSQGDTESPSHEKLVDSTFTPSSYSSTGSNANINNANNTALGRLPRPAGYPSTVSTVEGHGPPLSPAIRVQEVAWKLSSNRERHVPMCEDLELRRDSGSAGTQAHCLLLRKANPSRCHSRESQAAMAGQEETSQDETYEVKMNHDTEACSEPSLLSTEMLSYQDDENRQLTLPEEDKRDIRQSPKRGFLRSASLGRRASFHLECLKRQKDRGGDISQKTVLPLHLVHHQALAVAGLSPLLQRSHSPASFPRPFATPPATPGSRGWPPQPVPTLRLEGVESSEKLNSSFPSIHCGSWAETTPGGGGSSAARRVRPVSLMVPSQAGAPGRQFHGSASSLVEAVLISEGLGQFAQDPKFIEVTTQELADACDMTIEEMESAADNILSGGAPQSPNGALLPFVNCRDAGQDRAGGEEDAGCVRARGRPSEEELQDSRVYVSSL
Chain of L-type Ca^2+ currents (Q08289 whole entry partner): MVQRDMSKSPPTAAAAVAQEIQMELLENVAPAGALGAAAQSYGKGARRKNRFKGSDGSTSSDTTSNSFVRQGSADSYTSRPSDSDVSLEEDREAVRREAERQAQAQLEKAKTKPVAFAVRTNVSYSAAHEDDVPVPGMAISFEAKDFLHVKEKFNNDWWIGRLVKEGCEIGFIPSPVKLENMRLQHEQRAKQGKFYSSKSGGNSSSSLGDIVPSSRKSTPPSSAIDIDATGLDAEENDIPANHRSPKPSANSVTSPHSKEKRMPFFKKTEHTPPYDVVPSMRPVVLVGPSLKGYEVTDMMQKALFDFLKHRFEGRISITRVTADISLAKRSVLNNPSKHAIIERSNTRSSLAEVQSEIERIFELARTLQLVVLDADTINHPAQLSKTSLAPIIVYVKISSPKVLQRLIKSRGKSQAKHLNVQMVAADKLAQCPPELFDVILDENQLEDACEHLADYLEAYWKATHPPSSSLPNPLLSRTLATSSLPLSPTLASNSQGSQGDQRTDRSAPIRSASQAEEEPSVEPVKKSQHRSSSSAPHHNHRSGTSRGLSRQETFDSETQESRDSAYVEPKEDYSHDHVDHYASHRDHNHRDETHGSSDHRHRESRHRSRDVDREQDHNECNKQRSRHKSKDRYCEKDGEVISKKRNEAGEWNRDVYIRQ
Chain of L-type Ca^2+ currents (P54289 25-956 partner limits assumed): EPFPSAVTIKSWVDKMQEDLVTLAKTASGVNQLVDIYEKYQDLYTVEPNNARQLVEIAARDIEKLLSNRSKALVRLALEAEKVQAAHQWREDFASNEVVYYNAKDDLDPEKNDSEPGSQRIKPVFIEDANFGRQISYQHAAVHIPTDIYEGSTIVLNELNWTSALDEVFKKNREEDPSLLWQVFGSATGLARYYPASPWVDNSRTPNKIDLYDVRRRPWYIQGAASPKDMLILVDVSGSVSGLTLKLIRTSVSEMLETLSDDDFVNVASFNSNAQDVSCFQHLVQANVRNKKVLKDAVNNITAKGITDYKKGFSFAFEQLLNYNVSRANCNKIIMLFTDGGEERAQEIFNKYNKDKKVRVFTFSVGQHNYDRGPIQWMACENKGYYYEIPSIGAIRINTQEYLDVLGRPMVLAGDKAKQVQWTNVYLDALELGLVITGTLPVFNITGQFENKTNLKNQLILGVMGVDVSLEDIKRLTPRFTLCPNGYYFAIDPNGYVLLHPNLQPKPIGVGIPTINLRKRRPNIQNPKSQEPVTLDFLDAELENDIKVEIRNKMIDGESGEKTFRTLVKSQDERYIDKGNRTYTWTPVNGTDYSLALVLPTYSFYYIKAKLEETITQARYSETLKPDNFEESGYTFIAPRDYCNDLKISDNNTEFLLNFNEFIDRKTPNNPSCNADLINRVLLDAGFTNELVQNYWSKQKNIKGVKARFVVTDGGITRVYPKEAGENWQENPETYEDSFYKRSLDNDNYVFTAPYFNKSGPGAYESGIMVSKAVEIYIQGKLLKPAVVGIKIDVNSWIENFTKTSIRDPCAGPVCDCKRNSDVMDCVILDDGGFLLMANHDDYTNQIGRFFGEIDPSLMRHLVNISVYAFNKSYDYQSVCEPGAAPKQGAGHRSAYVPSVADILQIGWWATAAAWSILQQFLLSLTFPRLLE
Chain of L-type Ca^2+ currents (P54289 957-1103 partner limits assumed): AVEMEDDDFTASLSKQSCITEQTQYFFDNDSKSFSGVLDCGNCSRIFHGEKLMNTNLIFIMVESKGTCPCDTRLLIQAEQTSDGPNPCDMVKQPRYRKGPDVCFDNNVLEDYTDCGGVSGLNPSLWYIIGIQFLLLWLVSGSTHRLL

On to `CCCCc1oc2ccccc2c1C(=O)c1cc(I)c(OCCN(CC)CC)c(I)c1` [Amiodarone], for which the “block of L-type Ca2+ currents” value at L-type Ca^2+ currents is listed as “blocks L-type Ca^2+ currents”.
For the compound `CC1Cc2ccccc2N1NC(=O)c1ccc(Cl)c(S(N)(=O)=O)c1` (centres unmarked) [Indapamide], the “block of IKs” value on IKs was “inhibit IKs”.
Regarding `COc1ccccc1OCC(O)CN1CCN(CC(=O)Nc2c(C)cccc2C)CC1` (centres unmarked) [Ranolazine], on IKr, the “block of IKr” value is “blocks IKr”.
`Cc1cccc(C)c1OCC(C)N` (centres unmarked) [mexiletine]: the “cleared by CYP2D6” value on CYP2D6 is 75%. The compound further registered an increase in concentration in data set [1] of about 4 fold. For the same compound, the “F (bioavailability)” value in [2] is listed as 95%.
Turning to `COc1c(N2C[C@@H]3CCCN[C@@H]3C2)c(F)cc2c(=O)c(C(=O)O)cn(C3CC3)c12` [moxifloxacin], the “QT prolongation added to the QTc interval” value in the data set with QTc interval is 7-10 milliseconds.
As for `CC(C)(C)c1ccc(C(O)CCCN2CCC(C(O)(c3ccccc3)c3ccccc3)CC2)cc1` (centres unmarked) [terfenadine], the “Protein binding of the drug” value in [3] was 97%. For the same compound, the highest concentration (Cmax) – broadly, the highest concentration seen after dosing – in [4] is 3.18 nM.
`Nc1nc(N)c2nc(-c3ccccc3)c(N)nc2n1` [triamterene]: the “block of IKs” value at IKs was “significant block”. Besides, the “block of IKr” value on IKr is recorded as “significant block”.
